The values below come from PubChem BioAssay (NCI).

Structures are written as SMILES. “And” between values parts separate entries of the source, which are not always exact repeats. Identical values can stand only once.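 Results reflect a 48-hour exposure of cells in 96-well plates to compound at five concentrations. GI50 = concentration required for 50% inhibition of growth. Definition used: TGI = concentration required for complete inhibition of growth.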

Some test systems named below: SNB-19 CNS; OVCAR-8 ovarian; HT29 colon; SF-295 CNS; SK-MEL-2 melanoma; NCI-H226 lung; HCT-116 colon; MALME-3M melanoma; ACHN renal; HCT-15 colon.
Assay in all cases: growth of human tumour cells (NCI), 48 h

In the case of `Cc1c2cc[n+](C)cc2c(C)c2c1[nH]c1ccc(O)c(OCC(F)(F)F)c12`, the TGI with SNB-19 CNS was 5.33 µM; in the test on OVCAR-8 ovarian it was 25.5 µM; in the test with HT29 colon it was > 55 µM; in the test on SF-295 CNS it was 3.76 µM; in the test with SK-MEL-2 melanoma it was 17.6 µM; with NCI-H226 lung, 4.08 µM. Moreover, the TGI is 12.1 µM in the test on HCT-116 colon and 8.47 µM in the test with MALME-3M melanoma.
`CC(C)Oc1cc(O)c2c(c1)OCC=C2CCC(=O)O`: the TGI is > 100 µM in the test with ACHN renal; > 100 µM in the test with SNB-19 CNS; 66.2 µM with HCT-15 colon; > 100 µM in the test on OVCAR-8 ovarian; 53.1 µM in the test on HT29 colon; > 100 µM in the test with SF-295 CNS. The figures for the TGI with SK-MEL-2 melanoma, in the test on NCI-H226 lung and in the test with HCT-116 colon were > 100 µM, 69.8 µM and 66.5 µM, respectively.
On to `CC(=O)O[C@@H]1C2C(=O)OC(=O)C2C2CCC[C@]23O[C@H]13` (stereo not given in full), for which the TGI with ACHN renal, in the test on SNB-19 CNS, in the test on HCT-15 colon, with OVCAR-8 ovarian, in the test on SK-MEL-2 melanoma and in the test on NCI-H226 lung was > 100 µM each time. For the same molecule, the TGI in the test on HCT-116 colon and in the test with MALME-3M melanoma was > 100 µM in each case.
`c1cc(CNC2C3CCC(C3)C2c2c[nH]c3ccccc23)cc(CNC2C3CCC(C3)C2c2c[nH]c3ccccc23)c1` (stereo not given): the TGI was 2.04 µM with ACHN renal; 2.26 µM in the test with SNB-19 CNS; 1.01 µM and 1.12 µM with HCT-15 colon; 3.11 µM in the test on SK-MEL-2 melanoma; 3.45 µM with MALME-3M melanoma. Also, the GI50 is 0.325 µM and 0.301 µM in the test with HCT-15 colon; 0.331 µM and 0.154 µM with HT29 colon.
Regarding `Cc1nn(-c2ccccc2)c(-c2ccccc2[N+](=O)[O-])c1CC#N`, the TGI with ACHN renal, in the test with SNB-19 CNS, in the test on HCT-15 colon, with OVCAR-8 ovarian, with SF-295 CNS and with SK-MEL-2 melanoma was > 100 µM in each case. For the same molecule, the TGI in the test on MALME-3M melanoma was > 100 µM.
Turning to `CC(=O)Nc1ccc(S(=O)(=O)NNC(=O)c2cccnc2Nc2ccc(Cl)cc2)cc1`, the GI50 was 52.2 µM in the test with ACHN renal; 14.1 µM in the test with SNB-19 CNS; 13.7 µM with HCT-15 colon; 36.2 µM with OVCAR-8 ovarian; 4 µM in the test on HT29 colon; 3.49 µM in the test with SF-295 CNS. Further, the GI50 is 42.3 µM in the test with NCI-H226 lung, 7.22 µM with HCT-116 colon and > 100 µM with MALME-3M melanoma. The TGI in the test with ACHN renal, in the test on SNB-19 CNS, with HCT-15 colon, with OVCAR-8 ovarian, in the test on HT29 colon and in the test with SF-295 CNS was > 100 µM throughout. The TGI in the test on NCI-H226 lung, in the test with HCT-116 colon and in the test with MALME-3M melanoma was > 100 µM each time.
Regarding `CC(=O)OC1[C@H]2c3cc4c(cc3CN3CCC(=C[C@@H]1O)C23)OCO4` (stereo not given in full), the TGI in the test with ACHN renal, in the test on SNB-19 CNS, in the test on HCT-15 colon, in the test with OVCAR-8 ovarian, in the test with HT29 colon and in the test on SF-295 CNS was > 100 µM in each case. The TGI with NCI-H226 lung and with MALME-3M melanoma was > 100 µM each time.
In the case of `C/C(=N\NC(N)=S)c1nc2ccc(Cl)cc2[nH]1`, the GI50 is 0.848 µM in the test with ACHN renal; 3.93 µM in the test on SNB-19 CNS; 0.857 µM in the test with HCT-15 colon; 2.57 µM with OVCAR-8 ovarian; 2.32 µM in the test with HT29 colon; 1.33 µM in the test with SF-295 CNS. Besides, the values for the GI50 in the test with SK-MEL-2 melanoma, with NCI-H226 lung and in the test on HCT-116 colon were 2.81 µM, 2.48 µM and 2.11 µM, respectively. The TGI in the test on ACHN renal is 7.83 µM; in the test with SNB-19 CNS, > 50 µM; with HCT-15 colon, 12.5 µM; in the test on OVCAR-8 ovarian it was 15.5 µM; with HT29 colon, 14 µM; in the test on SF-295 CNS, 6.33 µM. The TGI came to 44.6 µM with SK-MEL-2 melanoma, 10.1 µM in the test with NCI-H226 lung and 8.85 µM in the test on HCT-116 colon.
Take `COC(=O)c1nc(N)[nH]c(=O)c1CCCCCc1c(C(=O)OC)nc(N)[nH]c1=O`: the TGI in the test with ACHN renal, in the test with SNB-19 CNS, in the test on HCT-15 colon, in the test with OVCAR-8 ovarian, in the test on HT29 colon and with SF-295 CNS was > 50 µM throughout. Besides, the TGI in the test on SK-MEL-2 melanoma, with HCT-116 colon and in the test with MALME-3M melanoma was > 50 µM in each case.
Take `S=c1nc(-c2cccnc2)[nH][nH]1`: the TGI in the test on ACHN renal, in the test with SNB-19 CNS, in the test with HCT-15 colon, in the test on HT29 colon, with SF-295 CNS and in the test on SK-MEL-2 melanoma was > 100 µM each time. Besides, the TGI in the test on HCT-116 colon and in the test with MALME-3M melanoma was > 100 µM in each case.
Consider `BrC1(Br)C2/C=C\CCCCC21` (stereo not given), for which the TGI with ACHN renal, in the test with SNB-19 CNS, in the test with OVCAR-8 ovarian, in the test on HT29 colon, in the test with SF-295 CNS and in the test with SK-MEL-2 melanoma was > 100 µM in each case. The TGI with NCI-H226 lung, in the test with HCT-116 colon and in the test on MALME-3M melanoma was > 100 µM each time.
In the case of `N#CC(NNC(=O)c1ccccc1O)c1cccc(O)c1` (stereo not given), the TGI in the test on ACHN renal, in the test with HCT-15 colon, in the test on OVCAR-8 ovarian, in the test with HT29 colon, in the test on SF-295 CNS and with SK-MEL-2 melanoma was > 100 µM throughout. Further, the figures for the TGI with NCI-H226 lung, in the test with HCT-116 colon and in the test on MALME-3M melanoma were 88.5 µM, > 100 µM and > 100 µM, respectively.
For the molecule `O=C(OC[C@H]1O[C@@H](OC(=O)c2cc(O)c(O)c(O)c2)[C@H](OC(=O)c2cc(O)c(O)c(O)c2)[C@@H](OC(=O)c2cc(O)c(O)c(O)c2)[C@@H]1OC(=O)c1cc(O)c(O)c(O)c1)c1cc(O)c(O)c(O)c1`, the TGI was 30.1 µM in the test with ACHN renal; > 100 µM in the test with SNB-19 CNS; > 100 µM with HCT-15 colon; 24.9 µM in the test with OVCAR-8 ovarian; 73.7 µM with HT29 colon; 20.3 µM in the test on SF-295 CNS. For the same molecule, the values for the TGI in the test with SK-MEL-2 melanoma, in the test with NCI-H226 lung and with HCT-116 colon were 26.4 µM, 7.98 µM and 16.8 µM, respectively.
Take `C[N+]1(C)C/C(=C\c2ccncc2)C(=O)/C(=C/c2ccncc2)C1`: the TGI in the test with ACHN renal, in the test on SNB-19 CNS, in the test with HCT-15 colon, in the test on OVCAR-8 ovarian, with HT29 colon and in the test with SF-295 CNS was > 100 µM each time. The TGI in the test with HCT-116 colon and with MALME-3M melanoma was > 100 µM throughout.
